Results on 10 molecules are retold here after patent US20240208961A1, “EIF4E INHIBITORS AND USES THEREOF” (PIC Therapeutics, Inc., priority 2022, published 2024).

Bounds are passed on as bounds.

In test [1] the test system is ZR-75-1. The test is described as follows: ZR-75-1 compound screening cell viability, Alamar Blue (Example 6). The test is classed as cell-based. To be noted: ZR-75-1 cells, Media 1% FBS, read-out: ZR-75-1 Cell Viability, 4 Days: IC50.
Test [2] concerns ZR-75-1. Put plainly: Cell viability assay, adherent cell line, 5 day Alamar Blue (Example 8): ZR-75-1. The test is classed as cell-based. To be noted: ZR-75-1, Breast Cancer Cell Viability. The protocol: (§1) Cell viability assays were performed on certain compounds of the disclosure, according to the following procedure.
(§2) Cell line specific media conditions used:
(§3) The procedure for adherent cell line compound screening was as follows:
(§4) • Cells were seeded in 96-well cell culture treated tissue culture plates: ZR-75-1, NIHOVCAR3, T47D, and LOVO cells 4000 cells/well; and HPAFII 3000 cell/well
(§5) Day 3: Compound Dilution and Dosing
(§6) • 5-fold serial dilution (8 point) of each compound in DMSO 0-25 mM in compound storage plates was prepared (stored at −80° C. if not to be used immediately). • Cells were rinsed with 1% FBS Media (appropriate to cell line as described above) and replaced with 87.5 μL media prior to dosing. HPAFII was screened in normal 10% FBS Media. • DMSO compound dilution series was diluted in 1% FBS media (appropriate to cell line as described above)—2 μL in 248 μL to give an 8× final concentration. • Cells were dosed 12.5 μL/well in triplicate to give final dose curved on cells 0-25 μM. • Media blank 100 μL/well×8 was set up. • All plates were incubated at 37° C.
(§7) Day 8: 5 Day Viability Assay
(§8) • Alamar Blue viability reagent was added (10 μL per well) and incubated for 3 hours at 37° C. prior to fluorescence detection (Ex560 nm/Em590 nm) on a Varioskan Lux multimode plate reader.
(§9) Results from cell viability assays are summarized in Table 23, wherein A represents IC50≤1 μM; B represents 1 μM<IC50≤8 μM; and C represents IC50>8 μM. Blank cells indicate that the compound was not tested in a particular assay.
(In general: Alamar Blue is a resazurin reagent that responds to reducing activity.)

Test [3] addresses T1, Human eIF4E (aa 28-217) (Homo sapiens, UniProt P06730).
T1 construct: Human eIF4E (aa 28-217) with a C-terminal His-tag; made in house
Put plainly: 4G-eIF4E protein-based assay (TR-FRET, biotin labeled 4G2 peptide). It is filed as binding. As to the method: Human eIF4E ([…]) with a C-terminal His-tag was expressed in E. coli in inclusion bodies. The protein was solubilized with 8 M urea and purified under denaturing conditions using nickel-charged HisTrap HP columns (GE Healthcare). The purified protein was then refolded by diluting in 20 mM Hepes pH 7.0, 0.5 M NaCl, 1 mM DTT, […], 0.5 M arginine plus 6 M urea, and then dialyzing overnight into the same buffer without the urea. The protein was further dialyzed into 20 mM Hepes, pH 6.5, 50 mM NaCl, 1 mM EDTA, 1 mM DTT, and concentrated using Hitrap SP sepharose FF columns (GE Healthcare). The concentrated protein was dialyzed into 20 mM Hepes, pH 7.0, 0.5M NaCl, 5 mM DTT and […], and stored at -80° C. until use. Test compounds (3.43 mM stock in DMSO) were diluted 2-fold in series in DMSO (10 concentration points). Compound solutions (1.2 μL/well) were added into black 384-well polypropylene microplates (Matrix, Thermal Scientific). […] The samples were incubated at room temperature (20-23° C.) for 4 hours. Biotin labeled 4G2 peptide ([…])-NH2, 1.75 μM stock in DMSO) was diluted to 0.13 μM in Assay Buffer (without DTT) and 5 μL/well was added. The samples were incubated at room temperature for 20 min. Five microliters per well of 15 nM Eu-streptavidin (Eu-SA, Perkin Elmer) and 96 nM Allophycocyanin (APC)-anti His antibody (Columbia Biosciences) in Assay Buffer (without DTT) were then added and the samples were incubated at room temperature for 20 min. Assay signals were monitored by reading excitation at 340 nm and emission fluorescence at 615 nm and 665 nm on an Envision reader (Perkin Elmer). Normalized TR-FRET (time-resolved fluorescence resonance energy transfer) assay signal (Rn) was calculated by the formula: […] C=(Ac-Ba)/(Dc-Bd) • Where Ac is the fluorescence intensity of 1.5 nM Eu-SA in the assay buffer at 665 nm. IC50 values were calculated using xLFit program (IDBS).
A general note: TR-FRET usually uses a lanthanide donor and a delayed reading to cut background.

The test system of test [4] is HPAFII. Put plainly: Cell viability assay, adherent cell line, 5 day Alamar Blue (Example 8): HPAFII. The test is classed as cell-based. The conditions noted are these: Homo sapiens, HPAF-II, 120 h, Pancreatic Cancer Cell. As to the method: as §1, §2, §3, §4, §5, §6, §7, §8, §9
The subject of test [5] is T47D. The test is described as follows: Cell viability assay, adherent cell line, 5 day Alamar Blue (Example 8): T47D. It is filed as cell-based. The conditions noted are these: Homo sapiens, 120 h, Breast Cancer Cell Viability. The protocol:
as §1, §2, §3, §4, §5, §6, §7, §8, §9

The test system of test [6] is MM.1S. Put plainly: Cell viability assay, suspension cell line, 5 day Alamar Blue (Example 8): MM.1S. The conditions noted are these: Homo sapiens, MM1.S, 120 h, Multiple Myeloma (Steroid Sensitive) Cancer Cell. It is filed as cell-based. As to the method: as §1, §2
(§10) The procedure for suspension cell line compound screening was as follows:
(§11) Day 1: Cell Seeding and Compound Dosing
as §6, with “• Cells were seeded 2×10^5 in 96-well cell culture treated tissue culture plates: 87.5 μL/well; MM.1 S, MM,1R, NCIH510A. • 5-fold” for “• 5-fold”, “to dosing. • DMSO” for “to dosing. HPAFII was screened in normal 10% FBS Media. • DMSO”
(§12) Day 6: 5 Day Viability Assay
as §8, §9

Test [7] relates to MM.1R. The test is described as follows: Cell viability assay, suspension cell line, 5 day Alamar Blue (Example 8): MM.1R. The test is classed as cell-based. To be noted: 120 h, Multiple Myeloma (Steroid Resistant) Cancer Cell. The protocol:
as §1, §2, §10, §11
as §6, with “• Cells were seeded 2×10^5 in 96-well cell culture treated tissue culture plates: 87.5 μL/well; MM.1 S, MM,1R, NCIH510A. • 5-fold” for “• 5-fold”, “to dosing. • DMSO” for “to dosing. HPAFII was screened in normal 10% FBS Media. • DMSO”
as §12, §8, §9

Test [8] concerns NCIH510A. The test is described as follows: Cell viability assay, suspension cell line, 5 day Alamar Blue (Example 8): NCIH510A. To be noted: Homo sapiens, NCI-H510A, 120 h, Small Cell Lung Cancer Cell Line. The test is classed as cell-based. As to the method:
as §1, §2, §10, §11
as §6, with “• Cells were seeded 2×10^5 in 96-well cell culture treated tissue culture plates: 87.5 μL/well; MM.1 S, MM,1R, NCIH510A. • 5-fold” for “• 5-fold”, “to dosing. • DMSO” for “to dosing. HPAFII was screened in normal 10% FBS Media. • DMSO”
as §12, §8, §9

The test system of test [9] is NIHOVCAR3. Put plainly: Cell viability assay, adherent cell line, 5 day Alamar Blue (Example 8): NIHOVCAR3. The test is classed as cell-based. To be noted: Homo sapiens, OVCAR-3, 120 h, OVCAR3, Ovarian Cancer Cell. As to the method:
as §1, §2, §3, §4, §5, §6, §7, §8, §9

Test [10] relates to LoVo. Put plainly: Cell viability assay, adherent cell line, 5 day Alamar Blue (Example 8): LoVo. The test is classed as cell-based. The conditions noted are these: Homo sapiens, 120 h, Colorectal Cancer Cell Viability. The protocol: as §1, §2, §3, §4, §5, §6, §7, §8, §9

T1 sequence (P06730 28-217): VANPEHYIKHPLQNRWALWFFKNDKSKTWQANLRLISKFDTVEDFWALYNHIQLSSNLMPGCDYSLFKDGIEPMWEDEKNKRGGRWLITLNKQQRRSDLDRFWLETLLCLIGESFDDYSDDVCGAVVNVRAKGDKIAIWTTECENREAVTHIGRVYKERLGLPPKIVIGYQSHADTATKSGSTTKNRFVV

“2-((4-(cyclopent-1-en-1-yl)-5-isobutylthiazol-2-yl)amino)-5-(thiophen-2-yl)nicotinic acid [Compound I-7]”: the concentration for half-maximal inhibition (IC50) was less than 1000 nM in test [1] and greater than 8000 nM in [2].
With `CC(C)Cc1sc(Nc2ncc(-c3cccs3)cc2C(=O)O)nc1C1=CCC(F)(F)CC1` [Compound I-4], the IC50 in test [3] was 500 to 1000 nM; in [1] (Homo sapiens, 96 h) it was less than 1000 nM; in test [2] (Homo sapiens, 120 h), no more than 1000 nM; in test [4] it was no more than 1000 nM; in test [5], no more than 1000 nM; in test [6] it was no more than 1000 nM. The half-maximal inhibitory concentration (IC50) was 1000 to 8000 nM in test [7], no more than 1000 nM in test [8], no more than 1000 nM in test [9] and no more than 1000 nM in [10].
`COC(=O)c1cc(-c2cccs2)cnc1Nc1nc(C2=CCC(F)(F)CC2)c(CC(C)C)s1` [Compound I-5, methyl 2-((4-(4,4-difluorocyclohex-1-en-1-yl)-5-isobutylthiazol-2-yl)amino)-5-(thiophen-2-yl)nicotinate]: the IC50 is greater than 8000 nM in [1] (Homo sapiens, 96 h) and greater than 8000 nM in test [2] (Homo sapiens, 120 h).
Regarding `CC(C)Cc1sc(Nc2ncc(-c3cccs3)cc2C(=O)O)nc1C1CCCC1` [Compound I-6, 2-((4-cyclopentyl-5-isobutylthiazol-2-yl)amino)-5-(thiophen-2-yl)nicotinic acid], the IC50 in test [1] (Homo sapiens, 96 h) was less than 1000 nM; in [2] (Homo sapiens, 120 h), no more than 1000 nM.
On the same counts, the results for `CC(C)c1sc(Nc2ncc(-c3cccs3)cc2C(=O)O)nc1C1=CCCC1` [Compound I-9] are less than 1000 nM and no more than 1000 nM.
Consider `CC(C)Cc1sc(Nc2ncc(-c3cccs3)cc2C(=O)O)nc1C1CC1` [Compound I-10], for which the IC50 lay in the range of 1000 to 8000 nM in test [1] (Homo sapiens, 96 h) and 1000 to 8000 nM in test [2] (Homo sapiens, 120 h).
For `O=C(O)c1cc(-c2cccs2)cnc1Nc1nc(C(F)(F)F)cs1` [Compound I-12], the IC50 in test [1] (Homo sapiens, 96 h) was in the range of 1000 to 8000 nM; in [2] (Homo sapiens, 120 h) it was 1000 to 8000 nM.
As to `C=C(C)c1nc(Nc2ncc(-c3cccs3)cc2C(=O)O)sc1CC(C)C` [Compound I-13], the 50% inhibitory concentration (IC50) fell in the range of 500 to 1000 nM in [3]; 1000 to 8000 nM in test [1] (Homo sapiens, 96 h); 1000 to 8000 nM in test [2] (Homo sapiens, 120 h); 1000 to 8000 nM in test [4]; 1000 to 8000 nM in [5]; 1000 to 8000 nM in test [6]. Further, the IC50 in test [7], in [8], in test [9] and in test [10] was 1000 to 8000 nM throughout.
In the case of `Cc1nc(Nc2ncc(-c3cccs3)cc2C(=O)O)sc1C` [Compound I-14], the IC50 was 1000 to 8000 nM in [1] (Homo sapiens, 96 h) and 1000 to 8000 nM in test [2] (Homo sapiens, 120 h).
Take `O=C(O)c1cc(-c2cccs2)cnc1Nc1nccs1` [Compound I-15]: the IC50 was greater than 8000 nM in test [1] (Homo sapiens, 96 h) and greater than 8000 nM in test [2] (Homo sapiens, 120 h).

In general, IC50 refers to the concentration that inhibits the measured activity by half.
